Values quoted from earlier work as cited in patent publication US20030232019A1, “Inhalable formulations for sustained release” (Advanced Inhalation Research, Inc., priority 2002, published 2003).

Conditions: healthy volunteers after inhalation

## insulin
  time to half-maximal action (glucose infusion rate): about 30 minutes
